Laboratory results taken from US20070286895A1, “WOUND DRESSING” (BRISTOL-MYERS SQUIBB COMPANY, priority 2002, published 2007).

Test system: human whole skin
Test: Whole skin silver staining study, Franz type diffusion cell (Example 2)
Conditions: dressing hydrated with 200 μl saline, 24 hours, 32° C., FIG. 1
Description: Skin staining studies were carried out using an adaptation of a Franz type horizontal glass diffusion cell as described in Dugard et al, 1984. Whole human skin and wound tissue samples (1 cm^2 discs) were punched out using an Osborne arch punch and placed epidermal side uppermost on the receptor chamber. The donor chamber was then gently placed on top of the receptor chamber. The whole cell was clamped together and placed into a water bath maintained at 32° C.±1° C. The underlying whole skin was bathed in saline.
Individual silver-containing wound dressings (0.64 1 cm^2) were cut out and placed onto the centre of a piece of human whole skin. 200 μl of saline was placed into the donor chamber to hydrate each dressing to mimic a moderately exuding wound. Appoximately 5-10 mg of Flamazine cream was placed onto the skin and gently smoothed over the exposed skin surface by means of a small spatula. […] Each cell was left for 24 hours and images were taken using a Polaroid digital microscope camera.

## O=[N+]([O-])[O-].[Ag+] [silver nitrate]
  silver staining of skin: significant silver staining
